Test results from patent US9340768B2, “Transformation of glycerol and cellulosic materials into high energy fuels” (THE TEXAS A&M UNIVERSITY SYSTEM, priority 2008, dated 2016).
“Also recorded” adds a separate entry of the source.

Assays:
Format in all cases: cell-based, Debaryomyces hansenii
D. hansenii [1] = experiment: Growth and oleagenicity of D. hansenii on pure carbon sources (Nile red plate staining); conditions: for Growth: carbon source at 30 g/L in minimal media; for Oleagenicity: carbon source at 30 g/L, Nile Red fluorescence
Description: D. hansenii (Dh) and S. cerevisiae (Sc) grown on minimal media containing no carbon source, 30 g/L of glucose, arabinose, xylose, carboxymethylcellulose or cellobiose. D. hansenii grew well on media containing glucose, arabinose and cellobiose. Lipid accumulation was indicated by Nile Red fluorescence in D. hansenii grown on glucose but not on cellobiose.
Culture media and cultivation conditions. For liquid culture, single colony of D. hansenii or S. cerevisiae were pre-cultured in 2 mL YPD or other desired media (see below) and incubated at 30° C. for 24 hr. Cells were counted using a hemacytometer and spun down at 3000 rpm for 15 minutes. Cells at a concentration of 1×10^6/mL were used to inoculate the desired media with 1% of the total volume. Medium A with limited nitrogen source (glucose 30 g/L, yeast extract 1.5 g/L, NH4Cl 0.1 g/L, KH2PO4 7.0 g/L, Na2HPO4 1.983 g/L, MgSO4.7H2O 1.5 g/L, FeCl3.6H2O 0.08 g/L, ZnSO4.7H2O 0.01 g/L, CaCl2.2H2O 0.1 g/L, MnSO4.H2O 0.07 mg/L, CuSO4.5H2O 0.1 mg/L, Co(NO3)2.6H2O 0.1 mg/L, pH 5.5; see Kimura et al., 2004) was used to support the growth of D. hansenii and induce cellular lipid accumulation. Medium A with sufficient nitrogen supply (NH4Cl 5 g/L) was used to support growth without the induction of lipid accumulation. To test the growth of D. hansenii on carbon sources other than glucose, glucose was dropped out from medium A and replaced with desired carbon sources at the same concentration except for glycerol, which was at 10% or 20% (v/v). […] For making media containing sorghum juice, raw juice was filter sterilized and added in the media at various concentrations of 5%, 10%, 25%, and 50% (v/v). Crude glycerol (Future Fuel Chemical Company, Arkansas, USA) contained 6% water, 88% glycerol, 2.564% ash by weight.
Nile red plate staining assay. Nile red (9-diethylamino-5H-benzo[α]phenoxazine-5-one) obtained from Sigma-Aldrich (Missouri, USA) was dissolved in Dimethyl sulfoxide (DMSO) at a concentration of 0.5 mg/mL and supplemented in medium A at a final concentration of 0.5 μg/mL. For direct observation of cellular lipid accumulation, D. hansenii grown on solid medium A with Nile red were observed using a UV light source (312 nm) as described (Spiekemann et al., 1999).

D. hansenii [2] = experiment: Cell viability by FUN1 stain and microscopic quantification; conditions: 100 nM wortmannin, FUN1 stain
Description: (§1) Fluorescent microscopy. For Nile red stained cells or cultures, microscopic photographs were taken with an Olympus BX51 microscope (Olympus America, New York, USA) equipped with an Olympus DP70 camera using a 530-550 nm excitation filter, a 570 nm diachronic mirror and a 590 nm emission filter with a 60× objective lens. For microscopic quantification of secreted lipid bodies, 50 μL of the cell suspension in media A containing 0.2% agarose and Nile red, with or without the addition of 100 nM wortmannin, were inoculated in triplicate in microscopic frames that allow the agarose-based matrix to be sealed between two pieces of cover glasses. Slides were incubated in 90% moisture at 30° C. At 0, 48, 72, 96, 120, 144 hr post inoculation, the number of the cells and extracellular lipid bodies (stained with Nile red) were quantified. In parallel, the cells were stained with FUN1 (Invitrogen) for viability determination.

D. hansenii [3] = experiment: Microscopic quantification of secreted (extracellular) lipid bodies, Nile red; conditions: 100 nM wortmannin, 144 hr post inoculation; untreated control more than 80 per 100 cells
Description: as §1

D. hansenii [4] = experiment: OmniLog Phenotype Microarray, osmolytes (PM9); conditions: 30° C., OMNILOG PM
Description: PM assays. Inoculums for PM panels were prepared according to the manufacturer's protocols with modifications; Procedures for S. cerevisiae and other Fungi version 8 Feb. 2006 (Biolog) was used to prepare inoculums for PM01, PM02, and PM09, while version 29 Apr. 2008 (Biolog) was used for PM10. In brief, D. hansenii were streaked onto defined Medium A (Table 6) and cultivated at 30° C. for 48 hours. Cells were redistributed onto fresh agar using a sterile swab and incubated for an additional 4 hours at 30° C. to ensure active growth and avoid late-growth clumping (Oliver R Homann, Houjian Cai, 2005). (Kimura et al., 2004)
Cells were then transferred into the appropriate PM inoculation fluid (Table 7) and re-suspended to 62% transmittance (approximately 200 cells per 100 μL assay). PM1 and PM2 measure carbon source utilization and/or sensitivity; as such, the inoculation fluid lacks a defined carbon source (e.g., glycerol or glucose). In contrast, the inoculating fluids for PM9 (osmolytes) and PM10 (pH) required the inclusion of a carbon source (Table 7); in this case glucose was supplemented to 100 mM.
D. hansenii-containing inoculation fluid was inoculated into PM panels and incubated at 30° C. for 6.5 days. Color intensity for each well was measured every 15 minutes. Exemplary time course (kinetic) results (means) from representative PM assays are plotted.
In order to simplify the comparison of individual assay conditions, the full time-course kinetic plots were converted into a single unitless numerical value, which is weighted to more greatly value latter time points (e.g., endpoints), as described by Homann et al. (2005). Signal value=[(average signal+maximum signal)/2−average signal over first 2 h]; Represent the full time course by a single number; Weight the value towards latter time points; Subtract the “baseline” signal level for each well (Oliver R Homann, 2005) and Replicate PM assay runs were conducted, and the average of the signal values was used.

Compound: O=C[C@@H](O)[C@H](O)[C@H](O)CO [Arabinose]
- Growth (D. hansenii [1]): grew well
- Oleagenicity (D. hansenii [1]): No

Compound: COC[C@H]1OC(=O)c2coc3c2[C@@]1(C)C1=C(C3=O)[C@@H]2CCC(=O)[C@@]2(C)C[C@H]1OC(C)=O [wortmannin]
- cell viability (D. hansenii [2]): remained unaffected; also recorded: not affected
- lipid bodies released from D. hansenii cells (D. hansenii [3]): lower than 10 per 100 cells

Compound: O=C[C@H](O)[C@@H](O)[C@H](O[C@@H]1O[C@H](CO)[C@@H](O)[C@H](O)[C@H]1O)[C@H](O)CO [Cellobiose]
- Growth (D. hansenii [1]): grew well
- Oleagenicity (D. hansenii [1]): No

Compound: [Cl-].[Na+] [NaCl]
- level of salt solution tolerated without severe compromise in growth (D. hansenii [4]): up to 6.5%

Compound: [Cl-].[K+] [KCl]
- level of salt solution tolerated without severe compromise in growth (D. hansenii [4]): ≤ 6%

Compound: O=S(=O)([O-])[O-].[Na+].[Na+] [Na2SO4]
- level of salt solution tolerated without severe compromise in growth (D. hansenii [4]): ≤ 5%

Compound: O=C[C@H](O)[C@@H](O)[C@H](O)CO [Xylose]
- Oleagenicity (D. hansenii [1]): No
